Assay results as given in PMC6290480 (Cannabis and Cannabinoid Research, 2018).
Values after ≈ are worked out from the molar mass of the structure shown. Where two headings read alike, the source gives them in different places.

Columns and labels:
CB1 [1] = target: T1, CB1 (Homo sapiens, UniProt P21554); assay: biochemical; type: binding; details: for α (binding cooperativity factor): cooperativity with orthosteric agonist [3H]CP55,940, α >1 positive allosteric modulator
T1 construct: expressed in transfected cells; host or cells: HEK293T cells, transient calcium phosphate transfection, pcDNA3.1 vector; membrane preparation
Description: (§1) Human embryonic kidney 293T (HEK293T) cells were grown and seeded in Dulbecco's modified Eagle's medium with 3.5 mg/mL glucose and 10% fetal bovine serum at 37°C and 5% carbon dioxide. To express the CB1 receptors, HEK293T cells were seeded at 1,000,000 cells/100-mm plate. The following day, cells were transfected via the calcium phosphate method with ∼10 μg of human CB1 receptor cloned into pcDNA3.1[23] Membranes of the transfected cells were prepared as previously described 21 h after transfection.[24]
Approximately 3 μg of membrane preparation expressing CB1 was incubated with nine concentrations of allosteric modulator (1 nM-10 μM). The radiolabeled tracer [[3]H]CP55,940 (150.2 Ci/mmol; Perkin Elmer), an orthosteric agonist of CB1, was added at 0.5 nM. Nonspecific binding was established by treating with a high concentration of unlabeled CP55,940 (10 μM; Tocris). The membranes were incubated at 30°C for 60 min, and the reaction was terminated with the addition of 300 μL of Tris-Mg^2+-EDTA (TME) buffer with 5% bovine serum albumin (BSA). The mixture was harvested by filtration through a Brandel cell harvester with Whatman GF/C filter paper. Liquid scintillation counting was used to measure radioactivity.
To synthesize the target azaindole-2-carboxamides, it requires corresponding azaindole-2-carboxylic acids (i.e., 1b and 8) as the key building blocks (Fig. 2). To access these azaindole-2-carboxylic acids, we used the Hemetsberger–Knittel indole synthesis, which involves Knoevenagel condensation between a pyridinecarbaldehyde and the azido acetate 5.[20] […] In this investigation, the 6-azaindole-2-carboxylic acid 1b was obtained from a commercial source (Achemtek, Worcester, MA). […] At the receptor binding level, when α is >1, the ligand is a positive allosteric modulator, whereas when α is <1, the ligand is a negative allosteric modulator. Accordingly, when α is equal to 1, it indicates no allosteric modulation on orthosteric ligand binding.

physchem = type: physicochemical; details: for solubility thermodynamic at 24 h: 37 °C, pH 7.4, aqueous buffer, thermodynamic from solid
Description: The thermodynamic solubility of selected compounds were tested according to previously reported methods.[16],[22] In brief, stock solution of test compound (1 mg/mL) in acetonitrile was prepared and then diluted with mobile phase to prepare the calibration standards in the concentration range of 0.1–50 μg/mL. Following this, 2 mg of test compound powder was suspended in 2 mL of phosphate-buffered saline (PBS; 10 mM) at pH 7.4 and 37°C. The suspension was stirred at 37°C with 800 rpm stirring for 24 h. After completion of the incubation, the saturated suspension was filtered through a syringe polytetrafluoroethylene filter (0.45 μm), which has no absorption for the compounds. 200 μL of the filtrate was diluted with 800 μL acetonitrile immediately to a final volume of 1 mL. Subsequently, 20 μL of this solution was used for the high-performance liquid chromatography (HPLC) analysis, which was analyzed on Shimadzu HPLC (LC model: LC20AB, UV/vis detector: SPD20A; Autosampler: SIL-20A HT) with a Phenomenex reverse phase C18 column (250×3 mm, Luna 5 μm C18 100Å). The HPLC analysis was carried out by using the mixture of acetonitrile and water (60:40 v/v) as the mobile phase with a flow rate of 1 mL/min. The signals were detected at UV wavelength 254 nm. At this wavelength, each peak's area under the curve was measured and used for the quantitative evaluation.

CB1 [2] = target: T1, CB1; assay: [35S]GTPγS binding evaluation (G-protein coupling); type: biochemical; details: percent of basal; for [35S]GTPγS binding, allosteric modulator alone: CB1 membranes treated with modulator alone; for [35S]GTPγS binding in the presence of CP55,940: modulator at 5 and 10 μM plus 0.1 μM CP55,940, compared to 0.1 μM CP55,940 alone
Description: as §1
To assess the impact of 3c and 3d on G-protein coupling of CB1, GTPγS assays were performed essentially as described previously.[20] […] GTPγS binding assay buffer (50 mM Tris-HCl, pH 7.4, 3 mM MgCl2, 0.2 mM EGTA, and 100 mM NaCl) was added to 200 μL. The membranes were incubated for 1 h at 30°C. To determine nonspecific binding, 10 μM unlabeled GTPγS (Sigma) was used. To determine basal activity, membrane preparations were treated with vehicle (dimethylsulfoxide or DMSO) alone. Termination of the reaction was achieved through filtration using Whatman GF/C filter papers and washing with cold TME buffer. Bound radioactivity was measured by liquid scintillation counting.

[3] = membranes of HEK293T cells expressing CB1, tracer [3H]CP55,940 0.5 nM, 30°C, 60 min, read-out: KB (equilibrium dissociation constant)
[4] = membranes of HEK293T cells expressing CB1, tracer [3H]CP55,940 0.5 nM, 30°C, 60 min

T1 sequence (P21554 whole entry): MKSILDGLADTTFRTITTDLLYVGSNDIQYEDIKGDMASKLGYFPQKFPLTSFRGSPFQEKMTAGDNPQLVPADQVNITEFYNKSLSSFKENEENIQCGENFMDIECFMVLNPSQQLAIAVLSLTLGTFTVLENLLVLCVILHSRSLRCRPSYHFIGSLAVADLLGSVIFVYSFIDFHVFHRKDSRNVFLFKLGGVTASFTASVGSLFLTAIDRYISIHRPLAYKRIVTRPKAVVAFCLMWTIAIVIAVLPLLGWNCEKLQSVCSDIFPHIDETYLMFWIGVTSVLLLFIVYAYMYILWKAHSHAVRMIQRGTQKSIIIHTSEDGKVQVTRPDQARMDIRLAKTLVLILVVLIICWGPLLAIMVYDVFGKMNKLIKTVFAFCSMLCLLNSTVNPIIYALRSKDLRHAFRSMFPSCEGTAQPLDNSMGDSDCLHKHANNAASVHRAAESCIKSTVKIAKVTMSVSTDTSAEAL

| Structure (SMILES) | α (binding cooperativity factor) (CB1 [1]) | Kb (CB1 [1]; [3]) | Thermodynamic solubility (obtained from experiments) (physchem; 24 h, pH 7.4) | Kb (CB1 [1]) | KB (equilibrium dissociation constant) (CB1 [1]; [4]) | [35S]GTPγS binding, allosteric modulator alone (CB1 [2]) | [35S]GTPγS binding in the presence of CP55,940 (CB1 [2]) | solubility thermodynamic at 24 h (physchem) | reduction of binding to the CB1 receptor in comparison with indole-2-carboxamide counterpart 3b (CB1 [1]; 3d versus 3b) | solubility in common organic solvents suitable for HPLC sample preparation (physchem) |
| --- | --- | --- | --- | --- | --- | --- | --- | --- | --- | --- |
| CN(C)c1ccc(CCNC(=O)c2cc3cc(Cl)ccc3[nH]2)cc1 [Compound 3a] | 4.2 | 300 nM | 0 µg/mL |  |  |  |  |  |  |  |
| O=C(NCCc1ccc(N2CCCCC2)cc1)c1cc2cc(Cl)ccc2[nH]1 [Compound 3b] | 5.1 |  |  | 200 nM |  |  |  |  |  |  |
| CN(C)c1ccc(CCNC(=O)c2cc3cc(Cl)ncc3[nH]2)cc1 [Compound 3c] | 3.2 | 2400 nM |  |  | modest binding affinity | inhibition of G-protein coupling was also seen | inhibition of GTPγS binding | 1.6 µg/mL (≈ 4.67 µM) |  |  |
| O=C(NCCc1ccc(N2CCCCC2)cc1)c1cc2cc(Cl)ncc2[nH]1 [Compound 3d] |  | 5600 nM |  |  | modest binding affinity | inhibition of G-protein coupling was also seen | inhibition of GTPγS binding |  | about 25 fold |  |
| CN(C)c1ccc(CCNC(=O)c2cc3cc(Cl)cnc3[nH]2)cc1 [Compound 9a] |  | > 10000 nM |  |  | completely lost their binding affinity |  |  | 3 µg/mL (≈ 8.75 µM) |  | exceptionally low solubility |
| O=C(NCCc1ccc(N2CCCCC2)cc1)c1cc2cc(Cl)cnc2[nH]1 [Compound 9b] |  | > 10000 nM |  |  | completely lost their binding affinity |  |  |  |  |  |
